≈ marks a conversion by molar mass, not a printed value.
Legend:
[1] = test system: Mycobacterium tuberculosis; test: Antimycobacterial activity against Mycobacterium tuberculosis ATCC 27294 in radiometric culture by NCCLS method; type: functional
[2] = test system: Mycobacterium tuberculosis; test: Antimycobacterial activity against Mycobacterium tuberculosis ATCC 27294 in radiometric culture at 50 ug/ml by NCCLS method; type: functional

## COc1cc(O)c2c(O)c3c(=O)cc(C)oc3cc2c1C [QUINQUANGULIN]
[1]
  MIC: 12 µg/mL (≈ 41.9 µM)
[2]
  inhibition at 50 µg/mL: 99%

## COc1cc(O)c2c(O)c3c(=O)cc(C)oc3cc2c1 [RUBROFUSARIN]
[1]
  MIC: 12 µg/mL (≈ 44.1 µM)
[2]
  inhibition at 50 µg/mL: 99%

Source: ChEMBL document CHEMBL1146480, “Antimycobacterial Naphthopyrones from Senna obliqua” (2004)
